Where two headings read alike, the source gives them in different places.
Tests used:
[1] = test system: congenital heart defects in offspring; settings: cited from earlier work
fetal rat heart = test: Effect of high-dose folic acid on fetal rat heart, histopathology (Example 8); type: in vivo, SD rats; settings: for Development delay / Malformation cases / Malformation rate / Sparse myocardial trabeculae / Ventricular defects/septal defects: fetal rats
Description: 28 each of female and male adult healthy SD rats, weighing about 200-250 g, were purchased from SPF (Beijing) biotechnology co., LTD. After all animals were purchased, general physiological indicators, body weight and feeding of the animals were observed. The animals were adaptively fed for one week. […] The animals were fed day and night in natural lighting, and at a room temperature of 18-26° C. and a relative humidity of 40%-70%.
The obtained 16 pregnant mice were randomly divided into 4 groups with 4 rats in each group according to body weight: a normal group, a high-dose folic acid group, a middle-dose folic acid group and a low-dose folic acid group. The high-dose folic acid (36.44 mg/kg) group, the middle-dose folic acid (18.22 mg/kg) group, the low-dose folic acid (9.11 mg/kg) group and a blank control group were separately set. The pregnant mice were intragastrically administrated with a 1 ml/100 g solution. The pregnant mice were given pure water in the normal group. The pregnant mice in the other groups started to be administrated on the 2nd day after grouping once a day for 21 consecutive days. The pregnant mice in each group freely ate and drunk. After the female rats were administrated for 7 days, male and female rats were mated in a cage at a ratio of 1:1 overnight, a vaginal plug was checked the next morning, a day when the vaginal plug was found was regarded as day 0 of pregnancy, the pregnant mice were separately fed and administrated for 21 consecutive days, and a fetus was obtained by cesarean section.
Routine histopathologic paraffin sample preparation, serial section (a thickness of 5 μm) and HE staining were conducted. Sample preparation: routine histopathologic paraffin sample sections were prepared and each sample was 1 paraffin block; and section: each numbered sample had 20 sections. A starting point of mounting was when the paraffin block was sliced, there were ventricular mounting slices and 4 consecutive tissue points were mounted on each glass slide on average. HE staining: there were 20 glass slides for each sample and every other 1 slide was taken for HE staining, a total of 10 slides. Observation and analysis: Leica panoramic image acquisition and comparative analysis were conducted. Fetal rat hearts were dissected and sliced for observation, and the results were as follows.

zebrafish embryos [2] = test: Teratogenic effect of folic acid on zebrafish embryos (Example 3); settings: for embryo coverage: 8 hpf
Description: Transgenic zebrafish (fli-1:EGFP) were from the Model Animal Research Center of Nanjing University. Adult zebrafish aged less than 1 were used for experiment and fed at a water pH value of 7±0.2, a temperature around 28° C. and a ratio of illumination to darkness of 14 h:10 h, and with Artemia salina eggs twice a day. Three zebrafish, one female, two males, were placed in a spawning box the night before and eggs were collected the next morning. Fish eggs were placed in an embryo culture medium (prepared with 0.2 g/L of sea salt) and cultured at 28° C. […] Dead embryos were cleaned up in time. A phenotype of malformation was observed, the number of all abnormal zebrafish where the malformation was present was recorded and a malformation rate and a rescue rate of each group were calculated. Morphological defects, a heart rate, cardiac morphology and other indicators were observed and evaluated by an SMZ745T inverted stereomicroscope.

zebrafish embryos [3] = settings: 6 mM FA
Description: Transgenic zebrafish (fli-1:EGFP) were from the Model Animal Research Center of Nanjing University. Adult zebrafish aged less than 1 were used for experiment and fed at a water pH value of 7±0.2, a temperature around 28° C. and a ratio of illumination to darkness of 14 h:10 h, and with Artemia salina eggs twice a day. Three zebrafish, one female, two males, were placed in a spawning box the night before and eggs were collected the next morning. Fish eggs were placed in an embryo culture medium (prepared with 0.2 g/L of sea salt) and cultured at 28° C. […] Dead embryos were cleaned up in time. Each experiment was conducted in triplicate. […] A phenotype of malformation was observed, the number of all abnormal zebrafish where the malformation was present was recorded and a malformation rate and a rescue rate of each group were calculated. Morphological defects, a heart rate, cardiac morphology and other indicators were observed and evaluated by an SMZ745T inverted stereomicroscope.

[4] = folic acid 9.11 mg/kg intragastric
[5] = folic acid 18.22 mg/kg intragastric
[6] = folic acid 36.44 mg/kg intragastric

Nc1nc2ncc(CNc3ccc(C(=O)N[C@@H](CCC(=O)O)C(=O)O)cc3)nc2c(=O)[nH]1 [FA, pteroylglutamic acid]
reduction of risk of CHD ([1]; folic acid supplementation, hospital case-control studies in Guangdong, Hubei, Fujian and Shanxi): 65% | lower risk of giving birth to infants with heart defects ([1]; women taking folic acid, case-control study, north of the Netherlands): approximately 20% | Development delay (fetal rat heart; [4]): 1 | Malformation cases (fetal rat heart; [4]): 3 | Malformation rate (fetal rat heart; [4]): 10.7% | Sparse myocardial trabeculae (fetal rat heart; [4]): 1 | Ventricular defects/septal defects (fetal rat heart; [4]): 3 | Development delay (fetal rat heart; [5]): 1 | Malformation cases (fetal rat heart; [5]): 4 | Malformation rate (fetal rat heart; [5]): 15.4% | Sparse myocardial trabeculae (fetal rat heart; [5]): 2 | Ventricular defects/septal defects (fetal rat heart; [5]): 2 | Development delay (fetal rat heart; [6]): 3 | Malformation cases (fetal rat heart; [6]): 4 | Malformation rate (fetal rat heart; [6]): 25% | Sparse myocardial trabeculae (fetal rat heart; [6]): 1 | Ventricular defects/septal defects (fetal rat heart; [6]): 4 | litter rate of rats (fetal rat heart; folic acid, high dose): reduce the litter rate under a high dose | ventricular septum disappeared (number of animals) (fetal rat heart; high-dose folic acid group 36.44 mg/kg): 1 | embryo coverage (zebrafish embryos [2]; 2 mM FA): covered completely | heart shape and lower intestinal network blood vessels (zebrafish embryos [2]; 2 mM FA, 72 hpf): normal heart shape and normal development of lower intestinal network blood vessels | heart shape and lower intestinal network blood vessels (zebrafish embryos [2]; FA 4 mM or above, 72 hpf): pericardium edema malformations, atrial and ventricular elongation and developmental disorders of lower intestinal network blood vessels | embryo coverage (zebrafish embryos [2]; FA groups of other concentrations (4-10 mM)): not covered completely | survival rate of embryos (zebrafish embryos [2]; all FA groups (2, 4, 6, 8, 10 mM)): low survival rate of embryos | body length of embryos (zebrafish embryos [2]; folic acid 8 mM, 72 hpf): significantly shortened the body length of the embryos | embryo morphology (zebrafish embryos [2]; folic acid, 24 hpf): developmental malformation of heads and tails of the embryos | embryonic heart rate (zebrafish embryos [2]; folic acid, especially at 48 hpf): affected an embryonic heart rate | 10 s heart rate (48 hpf) and body length (72 hpf) (zebrafish embryos [3]): seriously led to bradycardia and a shortened body length of zebrafish | survival rate of zebrafish (zebrafish embryos [3]; 2-72 hpf): severely led to a low survival rate of zebrafish | embryo development (zebrafish embryos [3]; 8 hpf): delayed development of the zebrafish embryos | embryo phenotype (zebrafish embryos [3]; 24 hpf): led to small heads and short tails of zebrafish | embryo phenotype (zebrafish embryos [3]; 48 hpf): led to pericardium edema, dyspigmentation, and intersegmental vascular hypoplasia of zebrafish | pericardium edema (zebrafish embryos [3]; 48 hpf): seriously led to pericardium edema of zebrafish | embryo phenotype (zebrafish embryos [3]; 72 hpf): led to developmental disorders of lower intestinal network blood vessels of the zebrafish

Source: patent US20230043678A1, “USE OF 5-METHYLTETRAHYDROFOLATE” (priority 2019, published 2023)
